For assay [1], the target named is human RORγt ligand binding domain (RORγt LBD) (Homo sapiens (Human), UniProt P51449). Put plainly: RORγt ThermoFluor® assay (thermal shift binding). The note with it: read-out: ThermoFluor® Assay, Kd. The method in brief:
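Binding was inferred from thermal stabilisation (ΔTm) of the E. coli-expressed RORγt LBD (0.065 mg/mL), monitored by 1,8-ANS (60 μM) emission at 500 nm during a 1 °C/min ramp. Buffer was Hepes 100 mM pH 7.0 with NaCl, GSH and Tween-20.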

Another assay concerns the target full-length human RORγt (Homo sapiens (Human), UniProt P51449). Description: RORγt (full-length human) reporter assay, Conditions B or C. It is filed as cell-based. Conditions: for inhibition at 3 µM: at 3 μM compound concentration; for RORγt (FL) Reporter Assay B or C, % inhibition (value marked *): marked *: footnote not given. The method in brief: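 Readout is dual luciferase: firefly (GAL4-driven) normalized to DMSO-only and saturating-reference controls, then to CMV-Renilla. Full-length human RORγt fused to GAL4-DBD was transiently expressed in HEK293T; compound exposure ran overnight (16-20 h) starting 4-6 h after transfection, final FBS 1.3%, DMSO 0.1%.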

Where [2] appears, read: read-out: RORγt (FL) Reporter Assay B or C, % inhibition.
[3] abbreviates: read-out: RORγt (FL) Reporter Assay B or C, IC50.
Setting [4] is: Conditions B or C, read-out: RORγt (FL) Reporter Assay B or C, IC50.

Here are results for 18 compounds from patent US10975068B2, “6-aminopyridin-3-yl thiazoles as modulators of RORγT” (Janssen Pharmaceutica NV, priority 2016, dated 2021).

Like-named read-outs stand apart in the source and are kept apart here.

human RORγt ligand binding domain (RORγt LBD), sequence (P51449 other isoform, or with tags, fused parts or gaps): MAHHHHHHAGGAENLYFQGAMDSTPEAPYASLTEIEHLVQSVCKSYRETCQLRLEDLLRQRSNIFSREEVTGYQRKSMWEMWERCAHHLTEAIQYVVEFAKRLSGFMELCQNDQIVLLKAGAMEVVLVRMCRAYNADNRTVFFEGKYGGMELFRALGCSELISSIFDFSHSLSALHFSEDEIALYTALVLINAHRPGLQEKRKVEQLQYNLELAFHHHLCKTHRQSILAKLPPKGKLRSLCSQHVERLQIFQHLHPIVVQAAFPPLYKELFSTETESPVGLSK
full-length human RORγt, sequence (P51449 other isoform, or with tags, fused parts or gaps): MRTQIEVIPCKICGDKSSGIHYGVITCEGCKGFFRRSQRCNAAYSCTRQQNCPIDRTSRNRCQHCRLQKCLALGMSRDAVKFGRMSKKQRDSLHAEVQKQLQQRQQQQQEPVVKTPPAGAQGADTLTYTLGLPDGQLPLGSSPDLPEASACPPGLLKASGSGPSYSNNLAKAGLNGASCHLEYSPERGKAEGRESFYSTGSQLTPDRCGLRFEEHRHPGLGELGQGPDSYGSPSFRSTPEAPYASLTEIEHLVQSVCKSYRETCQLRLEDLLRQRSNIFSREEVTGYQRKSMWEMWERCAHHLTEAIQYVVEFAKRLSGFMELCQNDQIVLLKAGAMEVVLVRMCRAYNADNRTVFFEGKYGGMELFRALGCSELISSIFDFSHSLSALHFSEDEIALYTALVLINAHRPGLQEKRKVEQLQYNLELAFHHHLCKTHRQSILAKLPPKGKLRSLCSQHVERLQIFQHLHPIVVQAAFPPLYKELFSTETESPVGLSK

In the case of `C[C@H]1CCCN1C(=O)c1nc(C(=O)NCC(C)(C)O)sc1-c1cnc(NCC2(C(F)(F)F)CCC2)cc1C(F)F` [Example 274, 5-[4-(Difluoromethyl)-6-[[1-(trifluoromethyl)cyclobutyl]methylamino]-3-pyridyl]-N-(2-hydroxy-2-methyl-propyl)-4-[(2S)-2-methylpyrrolidine-1-carbonyl]thiazole-2-carboxamide], in assay [1], the Kd worked out at 0.97 nM. Moreover, the inhibition at 3 µM at full-length human RORγt (setting [2]) is 96%. Further, the IC50 on full-length human RORγt (setting [3]) came to 36 nM.
Regarding `C[C@H]1CCCN1C(=O)c1nc(C(=O)NCC(C)(C)O)sc1-c1cnc(NC2(C(F)(F)F)CC2)cc1C(F)(F)F` [Example 147, (S)—N-(2-Hydroxy-2-methylpropyl)-4-(2-methylpyrrolidine-1-carbonyl)-5-(4-(trifluoromethyl)-6-((1-(trifluoromethyl)cyclopropyl)amino)pyridin-3-yl)thiazole-2-carboxamide], the Kd in assay [1] amounted to 9.4 nM. Besides, the “RORγt (FL) Reporter Assay B or C, % inhibition (value marked ***)” value at full-length human RORγt (Conditions B or C, marked ***: footnote not given) was 94*** %. The concentration for half-maximal inhibition (IC50) at full-length human RORγt (setting [4]) turned out to be 120 nM.
Regarding `C[C@H]1CC(F)(F)CN1C(=O)c1nc(C(=O)NCC(C)(C)O)sc1-c1cnc(NC2CCCC2)cc1C(F)F` [Example 44, (S)-5-(6-(Cyclopentylamino)-4-(difluoromethyl)pyridin-3-yl)-4-(4,4-difluoro-2-methylpyrrolidine-1-carbonyl)-N-(2-hydroxy-2-methylpropyl)thiazole-2-carboxamide], the Kd in assay [1] stood at 2.5 nM. Moreover, the IC50 at full-length human RORγt (setting [4]) was determined as 20 nM. Besides, the inhibition at 6 µM on full-length human RORγt (read-out: RORγt (FL) Reporter Assay B or C, % inhibition @ 6 μM, Conditions B or C, @ 6 μM) came out at 111%.
Consider `C[C@H]1CCCN1C(=O)c1nc(C(=O)N[C@H]2CCC[C@@H]2O)sc1-c1cnc(NC(C)(C)C)cc1C(F)F` [Example 396, 5-[6-(tert-Butylamino)-4-(difluoromethyl)-3-pyridyl]-N-[(1S,2S)-2-hydroxycyclopentyl]-4-[(2S)-2-methylpyrrolidine-1-carbonyl]thiazole-2-carboxamide], for which the equilibrium dissociation constant (Kd) in assay [1] was 1.1 nM. Further, at full-length human RORγt (setting [2]), the inhibition at 3 µM was determined as 96%. At full-length human RORγt (setting [3]), the 50% inhibitory concentration (IC50) worked out at 21 nM.
For `C[C@H]1CCCN1C(=O)c1nc(C(=O)N2CC(C)(O)C2)sc1-c1cnc(NC(C)(C)C)cc1C(F)(F)F` [Example 268, [5-[6-(tert-Butylamino)-4-(trifluoromethyl)-3-pyridyl]-2-(3-hydroxy-3-methyl-azetidine-1-carbonyl)thiazol-4-yl]-[(2S)-2-methylpyrrolidin-1-yl]methanone] the same measures were 2.4 nM, 109% and 110 nM.
As for `C[C@H](Nc1cc(C(F)F)c(-c2sc(C(=O)N[C@H](C)C(C)(C)O)nc2C(=O)N2CC(F)(F)C[C@@H]2C)cn1)C(F)(F)F` [Example 198], in assay [1], the Kd stood at 2.5 nM. Also, the “RORγt (FL) Reporter Assay B or C, % inhibition (value marked *)” value (shortened to “RORγt … % inhibition (value marked *)”) on full-length human RORγt (Conditions B or C) was 102* %. Further, the concentration for half-maximal inhibition (IC50) on full-length human RORγt (setting [4]) was 53 nM.
For `CC[C@H](Nc1cc(C(F)F)c(-c2sc(C(=O)N[C@@H]3COC[C@H]3O)nc2C(=O)N2C3CCC2CC3)cn1)C(F)(F)F` [Example 208, 4-((1s,4s)-7-Azabicyclo[2.2.1]heptane-7-carbonyl)-5-(4-(difluoromethyl)-6-(((1S)-1-(trifluoromethyl)propyl)amino)-3-pyridyl)-N-((3R,4S)-4-hydroxytetrahydrofuran-3-yl)thiazole-2-carboxamide], the Kd in assay [1] turned out to be 4.4 nM. Moreover, at full-length human RORγt (Conditions B or C), the “RORγt … % inhibition (value marked *)” value is reported as 101* %. Moreover, the IC50 at full-length human RORγt (setting [4]) came to 54 nM.
For `O=C(NC1CCS(=O)(=O)CC1)c1nc(C(=O)N2C3CCC2CC3)c(-c2cnc(N[C@@H](C3CC3)C(F)(F)F)cc2C(F)F)s1` [Example 436, 4-((1s,4s)-7-Azabicyclo[2.2.1]heptane-7-carbonyl)-5-[6-[[(1S)-1-cyclopropyl-2,2,2-trifluoro-ethyl]amino]-4-(difluoromethyl)-3-pyridyl]-N-(1,1-dioxothian-4-yl)thiazole-2-carboxamide], the dissociation constant Kd in assay [1] was found to be 1 nM. Moreover, on full-length human RORγt (at 1 μM compound concentration, read-out: RORγt (FL) Reporter Assay B or C, % inhibition), the inhibition at 1 µM came to 117%. Also, on full-length human RORγt (setting [3]), the concentration for half-maximal inhibition (IC50) was 48 nM.
For `C[C@H]1CC(F)(F)CN1C(=O)c1nc(C(=O)N[C@H](C)C(C)(C)O)sc1-c1cnc(NC(C)(C)C)cc1C(F)F` [Example 256, 5-[6-(tert-Butylamino)-4-(difluoromethyl)-3-pyridyl]-4-[(2S)-4,4-difluoro-2-methyl-pyrrolidine-1-carbonyl]-N-[(1R)-2-hydroxy-1,2-dimethyl-propyl]thiazole-2-carboxamide], the Kd in assay [1] came out at 1.7 nM. Besides, the inhibition at 3 µM at full-length human RORγt (setting [2]) came to 123%. For the same compound, on full-length human RORγt (setting [3]), the half-inhibitory concentration (IC50) amounted to 20 nM.
The corresponding values for `O=C(N[C@@H]1CCC[C@H]1O)c1nc(C(=O)N2C3CCC2CC3)c(-c2cnc(N[C@@H](C3CC3)C(F)(F)F)cc2C(F)F)s1` [Example 439, 4-((1s,4s)-7-Azabicyclo[2.2.1]heptane-7-carbonyl)-5-[6-[[(1S)-1-cyclopropyl-2,2,2-trifluoro-ethyl]amino]-4-(difluoromethyl)-3-pyridyl]-N-[(1R,2R)-2-hydroxycyclopentyl]thiazole-2-carboxamide] are 0.27 nM, 102% and 10 nM.
In the case of `C[C@H]1CCCN1C(=O)c1nc(C(=O)NCC(C)(C)O)sc1-c1cnc(NC2(C)CCC2)cc1C(F)F` [Example 173], in assay [1], the dissociation constant Kd was 5.8 nM. At full-length human RORγt (Conditions B or C), the “RORγt … % inhibition (value marked *)” value was 95* %. In addition, at full-length human RORγt (setting [4]), the IC50 came to 55 nM.
For the compound `CC(C)(C)Nc1cc(C(F)F)c(-c2sc(C(=O)N[C@@H]3CCC[C@H]3O)nc2C(=O)N2C3CCC2CC3)cn1` [Example 434, 4-((1s,4s)-7-Azabicyclo[2.2.1]heptane-7-carbonyl)-5-[6-(tert-butylamino)-4-(difluoromethyl)-3-pyridyl]-N-[(1R,2R)-2-hydroxycyclopentyl]thiazole-2-carboxamide], the dissociation constant Kd in assay [1] came to 0.63 nM. Half-maximal inhibition against full-length human RORγt (RORγt (FL) Reporter Assay B or C, IC50) (IC50) required 11 nM. Also, the inhibition at 3 µM at full-length human RORγt (setting [2]) was 103%.
For `C[C@H]1CC(F)(F)CN1C(=O)c1nc(C(=O)NCC(C)(C)O)sc1-c1cnc(NCC2(C(F)(F)F)CC2)cc1C(F)F` [Example 275, 4-[(2S)-4,4-Difluoro-2-methyl-pyrrolidine-1-carbonyl]-5-[4-(difluoromethyl)-6-[[1-(trifluoromethyl)cyclopropyl]methylamino]-3-pyridyl]-N-(2-hydroxy-2-methyl-propyl)thiazole-2-carboxamide], in assay [1], the equilibrium dissociation constant (Kd) was found to be 2 nM. For the same compound, on full-length human RORγt (setting [2]), the inhibition at 3 µM is 99%. Further, the IC50 on full-length human RORγt (setting [3]) was 14 nM.
The corresponding values for `C[C@H]1CCCN1C(=O)c1nc(C(=O)N2CC[C@H](O)C2)sc1-c1cnc(NC(C)(C)C)cc1C(F)(F)F` [Example 350, [5-[6-(tert-Butylamino)-4-(trifluoromethyl)-3-pyridyl]-2-[(3S)-3-hydroxypyrrolidine-1-carbonyl]thiazol-4-yl]-[(2S)-2-methylpyrrolidin-1-yl]methanone] are 8.3 nM, 110% and 30 nM.
Regarding `C[C@H]1CCCN1C(=O)c1nc(C(=O)NCC(C)(C)O)sc1-c1ccnc(NC2CCCCC2)c1C#N` [Comparator Example 1, (S)-5-(3-Cyano-2-(cyclohexylamino)pyridin-4-yl)-N-(2-hydroxy-2-methylpropyl)-4-(2-methylpyrrolidine-1-carbonyl)thiazole-2-carboxamide, reference compound], in assay [1], the Kd was 3000 nM. Besides, on full-length human RORγt (HEK293T cells, read-out: RORγt (FL) Reporter Assay B or C, IC50), the half-maximal inhibitory concentration (IC50) was more than 6000 nM.
For the compound `CC[C@H](Nc1cc(C(F)F)c(-c2sc(C(=O)N[C@H]3C[C@H]3O)nc2C(=O)N2CCC[C@@H]2C)cn1)C(F)(F)F` (relative stereo) [Example 212, 5-(4-(Difluoromethyl)-6-(((S)-1,1,1-trifluorobutan-2-yl)amino)pyridin-3-yl)-N-((1S*,2R*)-2-hydroxycyclopropyl)-4-((S)-2-methylpyrrolidine-1-carbonyl)thiazole-2-carboxamide], the equilibrium dissociation constant (Kd) in assay [1] stood at 13 nM. In addition, the “RORγt … % inhibition (value marked *)” value on full-length human RORγt (Conditions B or C) is 104* %. At full-length human RORγt (setting [4]), the half-maximal inhibitory concentration (IC50) is 300 nM.
`C[C@H]1CCCN1C(=O)c1nc(C(=O)NCC(C)(O)C(F)(F)F)sc1-c1cnc(NC(C)(C)C)cc1C(F)(F)F` (single isomer, unassigned) [Example 358, 5-(6-(tert-Butylamino)-4-(trifluoromethyl)pyridin-3-yl)-4-((S)-2-methylpyrrolidine-1-carbonyl)-N—((S*)-3,3,3-trifluoro-2-hydroxy-2-methylpropyl)thiazole-2-carboxamide]: the equilibrium dissociation constant (Kd) in assay [1] worked out at 2.5 nM. Moreover, at full-length human RORγt (setting [2]), the inhibition at 3 µM worked out at 119%. Also, the 50% inhibitory concentration (IC50) on full-length human RORγt (setting [3]) worked out at 15 nM.
Consider `CC[C@H](Nc1cc(C(F)F)c(-c2sc(C(=O)N[C@@H]3COC[C@H]3O)nc2C(=O)N2CCC[C@@H]2C)cn1)C(F)(F)F` [Example 220, 5-(4-(Difluoromethyl)-6-(((1S)-1-(trifluoromethyl)propyl)amino)-3-pyridyl)-N-((3R,4S)-4-hydroxytetrahydrofuran-3-yl)-4-((2S)-2-methylpyrrolidine-1-carbonyl)thiazole-2-carboxamide], for which, in assay [1], the Kd is 6.1 nM. Moreover, at full-length human RORγt (Conditions B or C, marked *****: footnote not shown), the “RORγt (FL) Reporter Assay B or C, % inhibition (value marked *****)” value is 111***** %. Besides, the IC50 on full-length human RORγt (setting [4]) amounted to 13 nM.
